Data as given in patent US6420330B1, “Use of quaternary carboxylic acid alkanolamine ester salts as microbicide agents” (Cognis Deutschland GmbH, priority 1997, dated 2002).

Columns and labels:
Test in all cases: DGHM suspension test, microbicidal activity
Format in all cases: cell-based
[1] = test system: Candida albicans ATCC 10231
Method: (§1) The microbicidal activity of the quanterary carboxylic acid alkanolamine ester salts used in accordance with the invention was tested against the following selected test germs:
(§2) The effectiveness of the compound to be tested was determined by the suspension test in accordance with the guidelines of the Deutsche Gesellschaft for Hygiene and Mikrobiologie (DGHM). Test solutions containing quatemary carboxylic acid alkanolamine ester salts in the quantities shown in the Tables of 50, 100, 200, 400 and 800 mg/l were prepared using water with a hardness of 17° dH and optionally isopropanol.
(§3) At room temperatures, quantities of 0.1 ml test germ suspension were pipetted into test tubes containing 10 ml of the test solutions described above and mixed. After various contact times of 5, 15, 30 and 60 minutes, 1 ml of material was taken from the test tubes by pipette and transferred to 9 ml inactivator solution (inactivators: 3.0% Tween, 0.3% lecithin, 0.1% histidine). After in activation for at least 5 and at most 30 minutes, the living germ count was determined by plating out onto casein peptone-soybean flour peptone (CaSo)-agar plates. Using a spiral plater, the inactivating mixture was directly plated out onto CaSo-agar. The samples were incubated for 24 to 72 hours at 37° C. and macroscopically evaluated for growth. The destruction time or the residual germ count was determined in this way. The germ count of an unchallenged water control is related to the germ count of the inactivated test solution taking the dilution into account. The higher the value, the better the microbicidal effect. The symbol < means that the logarithmic reductuon factor is below the indicated value or, in the case of the symbol >, above the indicated value. The abbreviation CU stands for “concentration used”.

[2] = test system: Pseudomonas aeruginosa ATCC 15442
Method: as §1, §2, §3

[3] = test system: Staphylococcus aureus ATCC 6538
Method: as §1, §2, §3

[4] = CU 50 mg/l, contact time 5 mins.
[5] = CU 50 mg/l, contact time 15 mins.
[6] = CU 50 mg/l, contact time 30 mins.
[7] = CU 50 mg/l, contact time 60 mins.
[8] = CU 100 mg/l, contact time 5 mins.
[9] = CU 100 mg/l, contact time 15 mins.
[10] = CU 100 mg/l, contact time 30 mins.
[11] = CU 100 mg/l, contact time 60 mins.
[12] = CU 200 mg/l, contact time 5 mins.
[13] = CU 200 mg/l, contact time 15 mins.
[14] = CU 200 mg/l, contact time 30 mins.
[15] = CU 200 mg/l, contact time 60 mins.
[16] = CU 400 mg/l, contact time 5 mins.
[17] = CU 400 mg/l, contact time 15 mins.
[18] = CU 400 mg/l, contact time 30 mins.
[19] = CU 400 mg/l, contact time 60 mins.
[20] = CU 800 mg/l, contact time 5 mins.
[21] = CU 800 mg/l, contact time 15 mins.
[22] = CU 800 mg/l, contact time 30 mins.
[23] = CU 800 mg/l, contact time 60 mins.

Structure (SMILES): CCCCCCCC(=O)OCC[N+](C)(C)CCOC(=O)CCCCCCC.COS(=O)(=O)[O-] [Example 1, dimethyl diethanolammonium dicaprylic acid ester methosulfate]
- logarithmic reduction factor [1, 4]: <0.50
- logarithmic reduction factor [1, 5]: <0.37
- logarithmic reduction factor [1, 6]: <0.35
- logarithmic reduction factor [1, 7]: <0.36
- logarithmic reduction factor [1, 8]: <0.50
- logarithmic reduction factor [1, 9]: 0.41
- logarithmic reduction factor [1, 10]: 0.60
- logarithmic reduction factor [1, 11]: 0.70
- logarithmic reduction factor [1, 12]: 1.53
- logarithmic reduction factor [1, 13]: 2.53
- logarithmic reduction factor [1, 14]: 2.91
- logarithmic reduction factor [1, 15]: 3.61
- logarithmic reduction factor [1, 16]: >4.5
- logarithmic reduction factor [1, 17]: >4.37
- logarithmic reduction factor [1, 18]: >4.35
- logarithmic reduction factor [1, 19]: >4.36
- logarithmic reduction factor [1, 20]: >4.50
- logarithmic reduction factor [1, 21]: >4.37
- logarithmic reduction factor [1, 22]: >4.35
- logarithmic reduction factor [1, 23]: >4.36
- logarithmic reduction factor [2, 4]: <1.83
- logarithmic reduction factor [2, 5]: <1.47
- logarithmic reduction factor [2, 6]: <1.55
- logarithmic reduction factor [2, 7]: <1.56
- logarithmic reduction factor [2, 8]: <1.83
- logarithmic reduction factor [2, 9]: <1.47
- logarithmic reduction factor [2, 10]: <1.55
- logarithmic reduction factor [2, 11]: <1.56
- logarithmic reduction factor [2, 12]: <1.83
- logarithmic reduction factor [2, 13]: <1.47
- logarithmic reduction factor [2, 14]: <1.55
- logarithmic reduction factor [2, 15]: <1.56
- logarithmic reduction factor [2, 16]: <1.83
- logarithmic reduction factor [2, 17]: <1.47
- logarithmic reduction factor [2, 18]: 3.22
- logarithmic reduction factor [2, 19]: 4.41
- logarithmic reduction factor [2, 20]: >5.83
- logarithmic reduction factor [2, 21]: >5.47
- logarithmic reduction factor [2, 22]: >5.55
- logarithmic reduction factor [2, 23]: >5.56
- logarithmic reduction factor [3, 4]: <1.32
- logarithmic reduction factor [3, 5]: <1.71
- logarithmic reduction factor [3, 6]: <1.23
- logarithmic reduction factor [3, 7]: <1.32
- logarithmic reduction factor [3, 8]: <1.32
- logarithmic reduction factor [3, 9]: <1.71
- logarithmic reduction factor [3, 10]: <1.23
- logarithmic reduction factor [3, 11]: <1.32
- logarithmic reduction factor [3, 12]: <1.32
- logarithmic reduction factor [3, 13]: <1.71
- logarithmic reduction factor [3, 14]: <1.23
- logarithmic reduction factor [3, 15]: <1.32
- logarithmic reduction factor [3, 16]: <1.32
- logarithmic reduction factor [3, 17]: <1.1
- logarithmic reduction factor [3, 18]: 1.95
- logarithmic reduction factor [3, 19]: 3.54
- logarithmic reduction factor [3, 20]: <1.32
- logarithmic reduction factor [3, 21]: <3.59
- logarithmic reduction factor [3, 22]: <3.96
- logarithmic reduction factor [3, 23]: >5.32

Structure (SMILES): CCCCCCCCCCCC(=O)OCC[N+](C)(CCO)CCOC(=O)CCCCCCCCCCC.COS(=O)(=O)[O-] [Example 5, methyl triethanolammonium dilauric acid ester methosulfate]
- logarithmic reduction factor [2, 4]: <1.85
- logarithmic reduction factor [2, 5]: <1.79
- logarithmic reduction factor [2, 6]: <1.71
- logarithmic reduction factor [2, 7]: <1.51
- logarithmic reduction factor [2, 8]: <1.85
- logarithmic reduction factor [2, 9]: <1.79
- logarithmic reduction factor [2, 10]: <1.71
- logarithmic reduction factor [2, 11]: <1.81
- logarithmic reduction factor [2, 12]: <1.85
- logarithmic reduction factor [2, 13]: <1.79
- logarithmic reduction factor [2, 14]: <1.71
- logarithmic reduction factor [2, 15]: <1.81
- logarithmic reduction factor [2, 16]: <1.85
- logarithmic reduction factor [2, 17]: <1.79
- logarithmic reduction factor [2, 18]: <1.71
- logarithmic reduction factor [2, 19]: 3.84
- logarithmic reduction factor [2, 20]: <1.85
- logarithmic reduction factor [2, 21]: 3.43
- logarithmic reduction factor [2, 22]: 3.95
- logarithmic reduction factor [2, 23]: 4.40
- logarithmic reduction factor [3, 4]: <1.79
- logarithmic reduction factor [3, 5]: <1.73
- logarithmic reduction factor [3, 6]: 2.53
- logarithmic reduction factor [3, 7]: 3.88
- logarithmic reduction factor [3, 8]: <1.79
- logarithmic reduction factor [3, 9]: 2.38
- logarithmic reduction factor [3, 10]: 3.80
- logarithmic reduction factor [3, 11]: 5.21
- logarithmic reduction factor [3, 12]: 2.52
- logarithmic reduction factor [3, 13]: 4.25
- logarithmic reduction factor [3, 14]: >5.75
- logarithmic reduction factor [3, 15]: >5.86
- logarithmic reduction factor [3, 16]: 2.70
- logarithmic reduction factor [3, 17]: >5.73
- logarithmic reduction factor [3, 18]: >5.75
- logarithmic reduction factor [3, 19]: >5.86
- logarithmic reduction factor [3, 20]: 3.85
- logarithmic reduction factor [3, 21]: >5.73
- logarithmic reduction factor [3, 22]: >5.75
- logarithmic reduction factor [3, 23]: >5.86

Structure (SMILES): CCCCCCCCCCCC(=O)OCC[N+](C)(C)CCOC(=O)CCCCCCCCCCC.COS(=O)(=O)[O-] [Example 8, dimethyl diethanolammonium dilauric acid ester methosulfate]
- logarithmic reduction factor [2, 4]: <1.88
- logarithmic reduction factor [2, 5]: <1.93
- logarithmic reduction factor [2, 6]: <1.80
- logarithmic reduction factor [2, 7]: <1.90
- logarithmic reduction factor [2, 8]: <1.88
- logarithmic reduction factor [2, 9]: <1.93
- logarithmic reduction factor [2, 10]: <1.80
- logarithmic reduction factor [2, 11]: 3.05
- logarithmic reduction factor [2, 12]: <1.88
- logarithmic reduction factor [2, 13]: <1.93
- logarithmic reduction factor [2, 14]: 3.05
- logarithmic reduction factor [2, 15]: 3.77
- logarithmic reduction factor [3, 4]: <1.39
- logarithmic reduction factor [3, 5]: 3.24
- logarithmic reduction factor [3, 6]: 4.28
- logarithmic reduction factor [3, 7]: 4.23
- logarithmic reduction factor [3, 8]: 1.98
- logarithmic reduction factor [3, 9]: 3.40
- logarithmic reduction factor [3, 10]: 5.29
- logarithmic reduction factor [3, 11]: >5.60
- logarithmic reduction factor [3, 12]: 2.34
- logarithmic reduction factor [3, 13]: 4.64
- logarithmic reduction factor [3, 14]: >5.51
- logarithmic reduction factor [3, 15]: >5.60

Structure (SMILES): CCCCCCCCCC(=O)OCC[N+](C)(CCOC(=O)CCCCCCCCC)CCOC(=O)CCCCCCCCC.COS(=O)(=O)[O-] [Example 9, methyl triethanolammonium tricapric acid ester methosulfate]
- logarithmic reduction factor [2, 8]: <1.88
- logarithmic reduction factor [2, 9]: <1.93
- logarithmic reduction factor [2, 10]: <1.80
- logarithmic reduction factor [2, 11]: <1.90
- logarithmic reduction factor [2, 12]: <1.88
- logarithmic reduction factor [2, 13]: <1.93
- logarithmic reduction factor [2, 14]: <1.80
- logarithmic reduction factor [2, 15]: 2.94
- logarithmic reduction factor [2, 16]: <1.88
- logarithmic reduction factor [2, 17]: <1.93
- logarithmic reduction factor [2, 18]: 3.27
- logarithmic reduction factor [2, 19]: 3.72
- logarithmic reduction factor [3, 4]: <1.39
- logarithmic reduction factor [3, 5]: <1.59
- logarithmic reduction factor [3, 6]: <1.51
- logarithmic reduction factor [3, 7]: <1.60
- logarithmic reduction factor [3, 8]: <1.39
- logarithmic reduction factor [3, 9]: <1.59
- logarithmic reduction factor [3, 10]: <1.51
- logarithmic reduction factor [3, 11]: 2.09
- logarithmic reduction factor [3, 12]: <1.39
- logarithmic reduction factor [3, 13]: <1.59
- logarithmic reduction factor [3, 14]: 1.83
- logarithmic reduction factor [3, 15]: 2.97
